Test results published in US10232013B2, “Use of an antimicrobial peptide TP4 in treating a cancer” (Academia Sinica, priority 2016, dated 2019).
Marks after values point to notes of the source that are not given here. Where no end group is shown, it is not given here.

Assays:
[1] = MTS cell viability assay, HDF; assay type: cell-based; details: human, HDF dermal fibroblasts, mean±SD, read-out: Cellular toxicity (cell viability), MTS assay
Experimental: (§1) Cell-lines used in this study were purchased from the Bioresource Collection and Research Center (BCRC) in and the cells were cultured by the standard cell culture procedures and conditions provided by the BCRC. MB231 (BCRC 60425), MB453 (BCRC 60429), and HDF cells were cultured as previously described by Ting et al. MCF7 […] cells were maintained in α-MEM medium (ThermoFisher Scientific) supplemented with 2 mM L-glutamine, 10% FBS, 0.1 mM non-essential amino acids, 1 mM sodium pyruvate, and antibiotics (100 U mL^−1 penicillin G and […] streptomycin). M10 (BCRC 60197) cells were maintained in α-MEM medium (ThermoFisher Scientific) supplemented with 10% FBS and antibiotics. With the exception of MB231 and MB453, all cells were cultured at 37° C. with 5% CO2. For the cell viability and transfection assay, 1×10^4 cells [5×10^3 M10 cells were seeded and cultured for 48 h to allow the cells sufficient time for attachment] were seeded into the wells of a 96-well plate and cultured overnight. For the transfection assays, cells were transfected with 0.1-0.4 μg FOSB/FOSAB expression plasmid (Origene Technology Inc.) and cell viability was determined after 72 h. The transfection efficiencies (number of cells expressing eGFP/all cells) of the MB231 transfection assays were determined by observing ten randomly selected fields (from three independent transfections) of control GFP plasmid transfections under an inverted microscope (Olympus, IX71) coupled to a digital camera (Olympus DP80), using an […] (LCPlanFI 20×/0.40 Ph1). CellSens standard software (Olympus) was used for image acquisition. During the drug treatment assay, inhibitors (PD98059, BAPTA-AM, and AlP II) were added 30 min prior to TP4, and cell viability was determined at indicated time-points. Transfection was performed using LipofectAMINE™ 3000 (ThermoFisher Scientific), according to the manufacturer's recommendations. Knock-down cells were generated by transducing MB231 cells with pre-synthesized FOSB (or control) shRNA lentiviral particles (Santa Cruz Biotechnology), and selecting puromycin-resistant cells in accordance with the manufacturer's standard protocol. MB231 or M10 cells stably expressing eGFP or mOrange2 were generated through transfection with peGFP-puromycin or pmOrange2-C1 plasmid, followed by puromycin (5 μg mL^−1) or G418 (500 μg mL^−1) selection as described above.
(§2) Cell viability was quantitatively analyzed using the CellTiter-Glo® Luminescent Cell Viability Assay kit (ATP assay) and CellTiter 96® AQueous Non-Radioactive Cell Proliferation Assay kit (MTS assay) (Promega) in accordance with the manufacturer's protocol. For MTS assay, 1×10^4 cells were seeded into the wells of a 96-well plate and cultured overnight [5×10^3 M10 cells were seeded and cultured for 48 h to enable sufficient well attachment]. Cells were subsequently treated with different doses of TP4 (2.5-20 μg mL^−1) and harvested at the indicated time-points (3-24 h). Reaction mixtures (20 μL: MTS+PMS, using a ratio 20:1) were directly added to the cells, and the plates were incubated for 3 h at 37° C. Absorbance at 490 nm is directly proportional to the number of living cells in culture and was measured using a photometer (SpectraMax® i3, Molecular Devices). ATP assay was performed as previously described by Ting et al. Lactate dehydrogenase (LDH) assays were performed by quantitatively measuring cell lysis with a Cytotoxicity Detection Kit^PLUS (LDH) (Roche) in accordance with the manufacturer's protocol. The LDH standard was purchased from Cayman Chemical. Briefly, 1×10^4 cells were seeded into the wells of a 96-well plate and cultured overnight. Culture media were replaced with fresh medium containing 1% FBS and cells were subsequently treated with different doses of TP4 (2.5-20 μg mL^−1). Supernatants were harvested at 3 h. […]

[2] = system: MB453 (MDA-MB453) cells; assay: MTS cell viability assay, MB453; assay type: cell-based, human; details: mean±SD
Experimental: as §1, §2

[3] = MTS cell viability assay, M10; assay type: cell-based; details: human, M10 normal human mammary epithelial cells, mean±SD, read-out: Cellular toxicity (cell viability), MTS assay
Experimental: as §1, §2

## FIHHIIGGLFSAGKAIHRLIRRRRR [TP4, tilapia piscidin 4]
[1]; TP4 2.5 μg/mL, 3 h
  viability at 3 h, 2.5 μg/mL: 105 ± 6.49%
[1]; TP4 2.5 μg/mL, 6 h
  viability at 6 h, 2.5 μg/mL: 98.6 ± 4.42%
[1]; TP4 2.5 μg/mL, 12 h
  viability at 12 h, 2.5 μg/mL: 100 ± 4.74%
[1]; TP4 2.5 μg/mL, 24 h
  viability at 24 h, 2.5 μg/mL: 97.2 ± 5.62%
[1]; TP4 5.0 μg/mL, 3 h
  viability at 3 h, 5 μg/mL: 103 ± 5.88%
[1]; TP4 5.0 μg/mL, 6 h
  viability at 6 h, 5 μg/mL: 96.8 ± 3.43%
[1]; TP4 5.0 μg/mL, 12 h
  viability at 12 h, 5 μg/mL: 93.8 ± 3.81%
[1]; TP4 5.0 μg/mL, 24 h
  viability at 24 h, 5 μg/mL: 92.7 ± 6.58%
[1]; TP4 10.0 μg/mL, 3 h
  viability at 3 h, 10 μg/mL: 102 ± 9.49%
[1]; TP4 10.0 μg/mL, 6 h
  viability at 6 h, 10 μg/mL: 92.9 ± 2.98%
[1]; TP4 10.0 μg/mL, 12 h
  viability at 12 h, 10 μg/mL: 89.6 ± 3.87%
[1]; TP4 10.0 μg/mL, 24 h
  viability at 24 h, 10 μg/mL: 86.1 ± 9.39%
[1]; TP4 15.0 μg/mL, 3 h
  viability at 3 h, 15 μg/mL: 103 ± 9030%
[1]; TP4 15.0 μg/mL, 6 h
  viability at 6 h, 15 μg/mL: 90.8 ± 6.82%
[1]; TP4 15.0 μg/mL, 12 h
  viability at 12 h, 15 μg/mL: 85.9 ± 4.24%
[1]; TP4 15.0 μg/mL, 24 h
  viability at 24 h, 15 μg/mL: 82.2 ± 11.4%
[1]; TP4 20.0 μg/mL, 3 h
  viability at 3 h, 20 μg/mL: 98.6 ± 13%
[1]; TP4 20.0 μg/mL, 6 h
  viability at 6 h, 20 μg/mL: 81 ± 12.3%
[1]; TP4 20.0 μg/mL, 12 h
  viability at 12 h, 20 μg/mL: 80.5 ± 1.58%
[1]; TP4 20.0 μg/mL, 24 h
  viability at 24 h, 20 μg/mL: 72.2 ± 13.5%
[2]; MB453, TP4 2.5 μg/mL, 3 h
  Cellular toxicity (cell viability), MTS assay: 93.75 ± 4.33^d
[2]; MB453, TP4 2.5 μg/mL, 6 h
  Cellular toxicity (cell viability), MTS assay: 86.51 ± 4.19^d
[2]; MB453, TP4 2.5 μg/mL, 12 h
  Cellular toxicity (cell viability), MTS assay: 92.21 ± 6.61^d
[2]; MB453, TP4 2.5 μg/mL, 24 h
  Cellular toxicity (cell viability), MTS assay: 87.84 ± 4.75^d
[2]; MB453, TP4 5.0 μg/mL, 3 h
  Cellular toxicity (cell viability), MTS assay: 91.50 ± 4.32^d
[2]; MB453, TP4 5.0 μg/mL, 6 h
  Cellular toxicity (cell viability), MTS assay: 76.46 ± 6.25^d
[2]; MB453, TP4 5.0 μg/mL, 12 h
  Cellular toxicity (cell viability), MTS assay: 80.18 ± 5.41^d
[2]; MB453, TP4 5.0 μg/mL, 24 h
  Cellular toxicity (cell viability), MTS assay: 87.00 ± 4.16^d
[2]; MB453, TP4 10.0 μg/mL, 3 h
  Cellular toxicity (cell viability), MTS assay: 77.82 ± 4.33^d
[2]; MB453, TP4 10.0 μg/mL, 6 h
  Cellular toxicity (cell viability), MTS assay: 58.58 ± 5.43^d
[2]; MB453, TP4 10.0 μg/mL, 12 h
  Cellular toxicity (cell viability), MTS assay: 62.25 ± 10.74^d
[2]; MB453, TP4 10.0 μg/mL, 24 h
  Cellular toxicity (cell viability), MTS assay: 77.24 ± 4.07^d
[2]; MB453, TP4 15.0 μg/mL, 3 h
  Cellular toxicity (cell viability), MTS assay: 53.12 ± 10.90^d
[2]; MB453, TP4 15.0 μg/mL, 6 h
  Cellular toxicity (cell viability), MTS assay: 27.09 ± 2.54^d
[2]; MB453, TP4 15.0 μg/mL, 12 h
  Cellular toxicity (cell viability), MTS assay: 27.32 ± 5.51^d
[2]; MB453, TP4 15.0 μg/mL, 24 h
  Cellular toxicity (cell viability), MTS assay: 58.93 ± 2.80^d
[2]; MB453, TP4 20.0 μg/mL, 3 h
  Cellular toxicity (cell viability), MTS assay: 36.33 ± 5067^d
[2]; MB453, TP4 20.0 μg/mL, 6 h
  Cellular toxicity (cell viability), MTS assay: 18.25 ± 1.80^d
[2]; MB453, TP4 20.0 μg/mL, 12 h
  Cellular toxicity (cell viability), MTS assay: 15.02 ± 4.28^d
[2]; MB453, TP4 20.0 μg/mL, 24 h
  Cellular toxicity (cell viability), MTS assay: 40.15 ± 2.66^d
[3]; M10, TP4 2.5 μg/mL, 3 h
  viability at 3 h, 2.5 μg/mL: 101 ± 4.23%
[3]; M10, TP4 2.5 μg/mL, 6 h
  viability at 6 h, 2.5 μg/mL: 94.8 ± 7.52%
[3]; M10, TP4 2.5 μg/mL, 12 h
  viability at 12 h, 2.5 μg/mL: 96 ± 5.66%
[3]; M10, TP4 2.5 μg/mL, 24 h
  viability at 24 h, 2.5 μg/mL: 94 ± 3.81%
[3]; M10, TP4 5.0 μg/mL, 3 h
  viability at 3 h, 5 μg/mL: 97.1 ± 4.9%
[3]; M10, TP4 5.0 μg/mL, 6 h
  viability at 6 h, 5 μg/mL: 92 ± 5.12%
[3]; M10, TP4 5.0 μg/mL, 12 h
  viability at 12 h, 5 μg/mL: 92.6 ± 4.99%
[3]; M10, TP4 5.0 μg/mL, 24 h
  viability at 24 h, 5 μg/mL: 91.2 ± 3.99%
[3]; M10, TP4 10.0 μg/mL, 3 h
  viability at 3 h, 10 μg/mL: 90.8 ± 4.76%
[3]; M10, TP4 10.0 μg/mL, 6 h
  viability at 6 h, 10 μg/mL: 84 ± 7.47%
[3]; M10, TP4 10.0 μg/mL, 12 h
  viability at 12 h, 10 μg/mL: 83.8 ± 4.27%
[3]; M10, TP4 10.0 μg/mL, 24 h
  viability at 24 h, 10 μg/mL: 80.7 ± 5.72%
[3]; M10, TP4 15.0 μg/mL, 3 h
  viability at 3 h, 15 μg/mL: 84.8 ± 5.83%
[3]; M10, TP4 15.0 μg/mL, 6 h
  viability at 6 h, 15 μg/mL: 78.9 ± 5.57%
[3]; M10, TP4 15.0 μg/mL, 12 h
  viability at 12 h, 15 μg/mL: 65.5 ± 6.68%
[3]; M10, TP4 15.0 μg/mL, 24 h
  viability at 24 h, 15 μg/mL: 58.4 ± 6.8%
[3]; M10, TP4 20.0 μg/mL, 3 h
  viability at 3 h, 20 μg/mL: 67.9 ± 5.16%
[3]; M10, TP4 20.0 μg/mL, 6 h
  viability at 6 h, 20 μg/mL: 60.3 ± 4.97%
[3]; M10, TP4 20.0 μg/mL, 12 h
  viability at 12 h, 20 μg/mL: 47.2 ± 8.42%
[3]; M10, TP4 20.0 μg/mL, 24 h
  viability at 24 h, 20 μg/mL: 44 ± 4.5%
